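Assay format: 96-well plates, 48-hour exposure. Definition used: TGI = concentration required for complete inhibition of growth.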
Tests used:
Assay in all cases: NCI tumour cell line growth inhibition, 48 h
[1] = system: SK-OV-3 ovarian
[2] = system: EKVX NSCLC
[3] = system: LOX IMVI melanoma
[4] = system: 786-0 renal
[5] = system: MOLT-4 leukemia
[6] = system: SNB-19 CNS
[7] = system: HCT-15 colon
[8] = system: SF-539 CNS
[9] = system: OVCAR-4 ovarian
[10] = system: HOP-62 NSCLC
[11] = system: SW-620 colon
[12] = system: HOP-92 NSCLC
[13] = system: UACC-257 melanoma
[14] = system: A549 NSCLC
[15] = system: SN12C renal
[16] = system: MALME-3M melanoma
[17] = system: HCT-116 colon
[18] = system: BT-549 breast
[19] = system: COLO 205 colon
[20] = system: HS 578T breast
[21] = system: SK-MEL-2 melanoma
[22] = system: NCI-H226 lung
[23] = system: SF-295 CNS
[24] = system: HL-60(TB) leukemia
[25] = system: NCI-H23 lung
[26] = system: RXF 393 renal
[27] = system: SF-268 CNS
[28] = system: K-562 leukemia
[29] = system: CCRF-CEM leukemia
[30] = system: MDA-MB-231 breast
[31] = system: NCI-H460 lung
[32] = system: T-47D breast
[33] = system: HT29 colon
[34] = system: CAKI-1 renal
[35] = system: MDA-N
[36] = system: PC-3 prostate
[37] = system: RPMI-8226 leukemia
[38] = system: SK-MEL-5 melanoma
[39] = system: TK-10 renal
[40] = system: ACHN renal
[41] = system: KM12 colon
[42] = system: A498 renal
[43] = system: NCI-H522 lung
[44] = system: M14 melanoma
[45] = system: U251 CNS
[46] = system: IGROV1 ovarian
[47] = system: MCF7 breast
[48] = system: OVCAR-5 ovarian
[49] = system: MDA-MB-435
[50] = system: HCC-2998 colon
[51] = system: OVCAR-8 ovarian
[52] = system: NCI/ADR-RES ovarian
[53] = system: SNB-75 CNS
[54] = system: UACC-62 melanoma
[55] = system: OVCAR-3 ovarian
[56] = system: UO-31 renal
[57] = system: SK-MEL-28 melanoma
[58] = system: DU-145 prostate
[59] = system: SR leukemia

Measured: TGI

O=C1Cc2c([nH]c3ccc([N+](=O)[O-])cc23)-c2ccccc2N1
> 56.8 µM: [14]
> 55.1 µM: [41]
> 32.7 µM: [6]
> 63 µM: [31]
> 62.8 µM: [13]
> 21.2 µM: [20]
> 30 µM: [44]
0.325 µM: [29]
6.11 µM: [9]
4.46 µM: [33]
> 26.2 µM: [43]
2.98 µM: [37]
> 37.9 µM: [39]
0.77 µM: [48]
9.23 µM: [28]
18.8 µM: [10]
18.2 µM: [22]
19.1 µM: [15]
> 83.1 µM: [45]
1.16 µM: [19]
> 18.2 µM: [40]
1.96 µM: [17]
16.8 µM: [8]
8.44 µM: [35]
0.752 µM: [24]
2.38 µM: [2]
> 94.6 µM: [27]
> 95.7 µM: [34]
> 84 µM: [52]
2.02 µM: [38]
14.6 µM: [26]
> 58.5 µM: [11]
6.37 µM: [25]
5.62 µM: [21]
> 19.7 µM: [42]
1.44 µM: [5]
> 49.1 µM: [50]
not listed: [53] | [54] | [55] | [56] | [57] | [58] | [59]
> 100 µM: all other assays above

CCOc1ccc(NC(=O)C(=O)C2C(=O)Nc3ccccc3S2=O)cc1 (stereo unspecified)
not listed: [5] | [6] | [19] | [28] | [50] | [58] | [59]
> 100 µM: all other assays above

CNC(=S)N/N=C(\C)c1cc(OC)ccc1O
not listed: [22] | [33] | [39] | [47]
> 100 µM: all other assays above

COP1(=O)OCc2cnccc2O1 (stereo unspecified)
not listed: [12] | [24] | [26] | [29] | [42] | [58]
> 100 µM: all other assays above

CCOC(=O)c1sc2nc(SC)nc(N3CCCCC3)c2c1N
not listed: [2] | [8] | [24] | [29] | [47]
> 100 µM: all other assays above
